# Results published in US20060069132A1, “Azolecarboxamide herbicides” (priority 2004, published 2006).
# Key:
# [1] = tested on: barnyardgrass; assay: Test B pre-/postemergence herbicide test; assay type: in vivo, Echinochloa crus-galli; settings: for Barnyardgrass plant response rating: scale 0 (no effect) to 100 (complete control)
# Summary of the method: (§1)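 Test chemicals in a non-phytotoxic solvent mixture with surfactant were applied preemergence to seeded species and postemergence to plants 2-18 cm tall (1- to 4-leaf stage); rice and barnyardgrass were also tested in a flooded paddy at the 2-leaf stage. Visual rating versus controls after 13-15 days in greenhouse, scale 0 (no effect) to 100 (complete control).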
# [2] = tested on: Surinam grass; assay: Test B pre-/postemergence herbicide test; assay type: in vivo, Urochloa decumbens
# Summary of the method: (§2)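 Pre: seeds sown, then sprayed. Post: 1–4-leaf plants (2–18 cm) sprayed at the same time. Paddy: flooded, treated at 2-leaf stage. Formulation: non-phytotoxic solvent with surfactant. Greenhouse 13–15 days; visual 0–100 score relative to controls.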
# [3] = tested on: cocklebur; assay: Test B pre-/postemergence herbicide test; assay type: in vivo, Xanthium strumarium
# Summary of the method: as §1
# [4] = tested on: corn; assay: Test B pre-/postemergence herbicide test; assay type: in vivo, Zea mays
# Summary of the method: as §2
# [5] = tested on: large crabgrass; assay: Test B pre-/postemergence herbicide test; assay type: in vivo, Digitaria sanguinalis
# Summary of the method: as §2
# [6] = tested on: giant foxtail; assay: Test B pre-/postemergence herbicide test; assay type: in vivo, Setaria faberi
# Summary of the method: as §2
# [7] = tested on: lambsquarters; assay: Test B pre-/postemergence herbicide test; assay type: in vivo, Chenopodium album; settings: for Lambsquarters plant response rating: scale 0 (no effect) to 100 (complete control)
# Summary of the method: as §2
# [8] = tested on: morningglory; assay: Test B pre-/postemergence herbicide test; assay type: in vivo, Ipomoea coccinea
# Summary of the method: as §1
# [9] = tested on: pigweed; assay: Test B pre-/postemergence herbicide test; assay type: in vivo, Amaranthus retroflexus
# Summary of the method: as §2
# [10] = tested on: rice; assay: Test B pre-/postemergence herbicide test; assay type: in vivo, Oryza sativa; settings: preemergence
# Excerpt: Seeds selected from barnyardgrass (Echinochloa crus-galli (L.) Beauv.), Surinam grass (Urochloa decumbens (Staph) R. D. Webster, previously named Brachiaria decumbens Stapf), cocklebur (Xanthium strumarium L.), corn (Zea mays L.), large crabgrass (Digitaria sanguinalis (L.) Scop.), giant foxtail (Setaria faberi Herim.), lambsquarters (Chenopodium album L.), morningglory (Ipomoea coccinea L.), pigweed (Amaranthus retroflexus L.), rice (Oryza sativa L.) and velvetleaf (Abutilon theophrasti Medik.) were planted and treated preemergence with test chemicals formulated in a non-phytotoxic solvent mixture which included a surfactant.
# At the same time, plants selected from these crop and weed species and also blackgrass (Alopecurus myosuroides Huds.), wheat (Triticum aestivum L.) and wild oat (Avena fatua L.) were treated with postemergence applications of test chemicals formulated in the same manner. Plants ranged in height from 2 to 18 cm (1- to 4-leaf stage) for postemergence treatments. Plant species in the flooded paddy test consisted of rice (Oryza sativa L.), small flower umbrella sedge (Cyperus difformis L.), ducksalad (Heteranthera limosa (Sw.) Willd.) and barnyardgrass (Echinochloa crus-galli (L.) Beauv.) grown to the 2-leaf stage for testing. Treated plants and controls were maintained in a greenhouse for 13 to 15 days, after which time all species were compared to controls and visually evaluated. Plant response ratings, summarized in Table B, are based on a scale of 0 to 100 where 0 is no effect and 100 is complete control. A dash (-) response means no test result.
# [11] = tested on: velvetleaf; assay: Test B pre-/postemergence herbicide test; assay type: in vivo, Abutilon theophrasti
# Summary of the method: as §2
# [12] = tested on: blackgrass; assay: Test B postemergence herbicide test; assay type: in vivo, Alopecurus myosuroides
# Summary of the method: (§3)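 Paddy species grown to the 2-leaf stage under flooding; blackgrass sprayed postemergence at 2–18 cm (1- to 4-leaf stage). Plants kept in a greenhouse for 13 to 15 days, then visually rated against controls on 0 (no effect) to 100 (complete control).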
# [13] = tested on: wheat; assay: Test B postemergence herbicide test; assay type: in vivo, Triticum aestivum; set-up: key to Wheat plant response rating: 0 = no effect, 100 = complete control
# Summary of the method: (§4)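 Read-out: visual comparison with controls, scored 0 to 100, where 100 means complete control and 0 no effect. Formulated chemicals were applied postemergence to plants 2–18 cm tall (1- to 4-leaf), or to flooded-paddy plants at the 2-leaf stage, then held 13 to 15 days under glass.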
# [14] = tested on: wild oat; assay: Test B postemergence herbicide test; assay type: in vivo, Avena fatua
# Summary of the method: as §4
# [15] = tested on: rice; assay: Test B flooded paddy test; assay type: in vivo, Oryza sativa; settings: 1000 g ai/ha, scale 0 to 100 (0 no effect, 100 complete control)
# Summary of the method: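 Plants grow to 1- to 4-leaf stage (2–18 cm) for postemergence spraying, or to 2-leaf stage for the paddy test. Formulated compound is applied. Greenhouse holding lasts 13–15 days. Response is scored visually relative to controls, 0 no effect to 100 complete control; a dash means no result.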
# [16] = tested on: small flower umbrella sedge; assay: Test B flooded paddy test; assay type: in vivo, Cyperus difformis; settings: 1000 g ai/ha, scale 0 to 100 (0 no effect, 100 complete control)
# Summary of the method: as §3
# [17] = tested on: ducksalad; assay: Test B flooded paddy test; assay type: in vivo, Heteranthera limosa; settings: 1000 g ai/ha, scale 0 to 100 (0 no effect, 100 complete control)
# Summary of the method: as §3
# [18] = tested on: barnyardgrass; assay: Test B flooded paddy test; assay type: in vivo, Echinochloa crus-galli; settings: 1000 g ai/ha, scale 0 to 100 (0 no effect, 100 complete control)
# Summary of the method: as §3
# [19] = tested on: rice; assay: Test C flooded paddy test; assay type: in vivo, Oryza sativa
# Summary of the method: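 Postemergence sprays applied to plants 2 to 18 cm tall (1- to 4-leaf stage); paddy species grown to 2-leaf stage under flooding. After 12 to 14 days in greenhouse, visual rating versus untreated controls on 0–100 scale (0 no effect, 100 complete control).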
# [20] = tested on: smallflower umbrella sedge; assay: Test C flooded paddy test; assay type: in vivo, Cyperus difformis
# [21] = tested on: ducksalad; assay: Test C flooded paddy test; assay type: in vivo, Heteranthera limosa
# [22] = tested on: barnyardgrass; assay: Test C flooded paddy test; assay type: in vivo, Echinochloa crus-galli
# Summary of the method: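 Postemergence sprays were applied to plants 2 to 18 cm tall (1- to 4-leaf stage); in the flooded paddy test, barnyardgrass was grown to the 2-leaf stage. After 12 to 14 days in a greenhouse, injury was visually rated against untreated controls on a 0–100 scale (100 = complete control).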
# [23] = 500 g ai/ha, visual rating 0-100, 0 no effect, 100 complete control, preemergence
# [24] = postemergence, 125 g ai/ha, visual rating
# [25] = postemergence, 500 g ai/ha, visual rating
# [26] = preemergence, 125 g ai/ha, 0 to 100 scale, 0 is no effect, 100 is complete control
# [27] = postemergence, 125 g ai/ha, visual rating, scale 0 (no effect) to 100 (complete control)
# [28] = postemergence, 500 g ai/ha, visual rating, scale 0 (no effect) to 100 (complete control)
# [29] = 125 g ai/ha, 0 is no effect, 100 is complete control, preemergence
# [30] = Postemergence, 500 g ai/ha, scale 0 (no effect) to 100 (complete control)
# [31] = postemergence, 125 g ai/ha, scale 0 to 100
# [32] = 125 g ai/ha, scale 0 to 100 (0 no effect, 100 complete control)
# [33] = 250 g ai/ha, scale of 0 to 100, 0 is no effect, 100 is complete control
# [34] = 500 g ai/ha, visual rating after 12 to 14 days, scale 0 to 100 (0 no effect, 100 complete control)
smiles,measurement,setting,value
CCOC(=O)c1ccnc(NC(=O)c2cc(C(C)(C)C)nn2CC)c1 [Compound 157],"Plant response rating, Barnyardgrass",[1]; [23],0
same,Barnyardgrass plant response rating,[1]; [24],0
same,Barnyardgrass plant response rating,[1]; [25],20
same,"Plant response rating, Barnyardgrass",[1]; [26],0
same,"Plant response rating, Surinam Grass",[2]; [23],0
same,Surinam Grass plant response rating,[2]; [27],20
same,Surinam Grass plant response rating,[2]; [28],20
same,"Plant response rating, Surinam Grass",[2]; [26],0
same,"Plant response rating, Cocklebur",[3]; [23],20
same,Cocklebur plant response rating,[3]; [27],10
same,Cocklebur plant response rating,[3]; [28],90
same,"Plant response rating, Cocklebur",[3]; [26],0
same,"Plant response rating, Corn",[4]; [23],0
same,Corn plant response rating,[4]; [27],0
same,Corn plant response rating,[4]; [28],0
same,"Plant response rating, Corn",[4]; [26],0
same,"Plant response rating, Crabgrass, Large",[5]; [23],20
same,"Crabgrass, Large plant response rating",[5]; [27],0
same,"Crabgrass, Large plant response rating",[5]; [28],20
same,"Plant response rating, Crabgrass, Large",[5]; [26],0
same,"Plant response rating, Foxtail, Giant",[6]; [23],0
same,"Foxtail, Giant plant response rating",[6]; [27],30
same,"Foxtail, Giant plant response rating",[6]; [28],40
same,"Plant response rating, Foxtail, Giant",[6]; [26],0
same,"Plant response rating, Lambsquarters",[7]; [23],30
same,Lambsquarters plant response rating,[7]; [24],20
same,Lambsquarters plant response rating,[7]; [25],70
same,"Plant response rating, Lambsquarters",[7]; [26],0
same,"Plant response rating, Morningglory",[8]; [23],40
same,Morningglory plant response rating,[8]; [27],0
same,Morningglory plant response rating,[8]; [28],30
same,"Plant response rating, Morningglory",[8]; [26],0
same,"Plant response rating, Pigweed",[9]; [23],40
same,Pigweed plant response rating,[9]; [27],40
same,Pigweed plant response rating,[9]; [28],80
same,"Plant response rating, Pigweed",[9]; [26],0
same,"Plant response rating, Rice","[10]; 500 g ai/ha, visual rating 0-100, 0 no effect, 100 complete control",0
same,"Plant response rating, Rice","[10]; 125 g ai/ha, 0 to 100 scale, 0 is no effect, 100 is complete control",0
same,"Plant response rating, Velvetleaf",[11]; [23],0
same,Velvetleaf plant response rating,[11]; [27],50
same,Velvetleaf plant response rating,[11]; [28],80
same,"Plant response rating, Velvetleaf",[11]; [26],0
same,Blackgrass plant response rating,[12]; [27],10
same,Blackgrass plant response rating,[12]; [28],20
same,Wheat plant response rating,[13]; [28],20
same,"Oat, Wild plant response rating",[14]; [27],10
same,"Oat, Wild plant response rating",[14]; [28],40
same,Rice plant response rating,"[15]; visual rating, 13 to 15 days",30
same,"Sedge, Umbrella plant response rating","[16]; visual rating, 13 to 15 days",40
same,Ducksalad plant response rating,"[17]; visual rating, 13 to 15 days",0
same,Barnyardgrass plant response rating,"[18]; visual rating, 13 to 15 days",20
CCN(C)C(=O)c1cccc(NC(=O)c2nn(C(C)C)nc2C)c1 [Compound 407],"Plant response rating (0 to 100 scale), Barnyardgrass",[1]; [29],40
same,Barnyardgrass plant response rating,"[1]; Postemergence, 125 g ai/ha",0
same,Barnyardgrass plant response rating,"[1]; Postemergence, 500 g ai/ha",10
same,"Plant response rating (0 to 100 scale), Surinam Grass",[2]; [29],30
same,Surinam Grass plant response rating,[2]; [30],20
same,Surinam Grass plant response rating,[2]; [31],0
same,"Plant response rating (0 to 100 scale), Cocklebur",[3]; [29],10
same,Cocklebur plant response rating,[3]; [30],20
same,Cocklebur plant response rating,[3]; [31],10
same,"Plant response rating (0 to 100 scale), Corn",[4]; [29],0
same,Corn plant response rating,[4]; [30],20
same,Corn plant response rating,[4]; [31],10
same,"Plant response rating (0 to 100 scale), Crabgrass, Large",[5]; [29],80
same,"Crabgrass, Large plant response rating",[5]; [30],20
same,"Crabgrass, Large plant response rating",[5]; [31],10
same,"Plant response rating (0 to 100 scale), Foxtail, Giant",[6]; [29],30
same,"Foxtail, Giant plant response rating",[6]; [30],30
same,"Foxtail, Giant plant response rating",[6]; [31],10
same,"Plant response rating (0 to 100 scale), Lambsquarters",[7]; [29],80
same,Lambsquarters plant response rating,"[7]; Postemergence, 500 g ai/ha",60
same,"Plant response rating (0 to 100 scale), Morningglory",[8]; [29],30
same,Morningglory plant response rating,[8]; [30],60
same,Morningglory plant response rating,[8]; [31],20
same,"Plant response rating (0 to 100 scale), Pigweed",[9]; [29],50
same,Pigweed plant response rating,[9]; [30],40
same,Pigweed plant response rating,[9]; [31],30
same,"Plant response rating (0 to 100 scale), Velvetleaf",[11]; [29],10
same,Velvetleaf plant response rating,[11]; [30],20
same,Velvetleaf plant response rating,[11]; [31],20
same,Blackgrass plant response rating,[12]; [30],20
same,Blackgrass plant response rating,[12]; [31],0
same,Wheat plant response rating,"[13]; 500 g ai/ha, scale 0 to 100, 0 no effect, 100 complete control, preemergence",70
same,Wheat plant response rating,[13]; [30],0
same,Wheat plant response rating,[13]; [31],0
same,"Oat, Wild plant response rating",[14]; [30],0
same,"Oat, Wild plant response rating",[14]; [31],0
same,Rice plant response rating,[15],50
same,"Sedge, Umbrella plant response rating",[16],90
same,Ducksalad plant response rating,[17],80
same,Barnyardgrass plant response rating,[18],80
same,Rice plant response rating,"[19]; 62 g ai/ha, scale 0 to 100",0
same,Rice plant response rating,[19]; [32],0
same,Rice plant response rating,[19]; [33],20
same,"Plant response rating, Rice",[19]; [34],40
same,"Sedge, Umbrella plant response rating","[20]; 62 g ai/ha, scale 0 to 100",20
same,"Sedge, Umbrella plant response rating",[20]; [32],60
same,"Sedge, Umbrella plant response rating",[20]; [33],75
same,"Plant response rating, Sedge, Umbrella",[20]; [34],75
same,Ducksalad plant response rating,"[21]; 62 g ai/ha, scale 0 to 100",20
same,Ducksalad plant response rating,[21]; [32],40
same,Ducksalad plant response rating,[21]; [33],40
same,"Plant response rating, Ducksalad",[21]; [34],40
same,Barnyardgrass plant response rating,"[22]; 62 g ai/ha, scale 0 to 100 (0 no effect, 100 complete control)",0
same,Barnyardgrass plant response rating,[22]; [32],0
same,Barnyardgrass plant response rating,[22]; [33],0
same,"Plant response rating, Barnyardgrass",[22]; [34],20
